Measured values as given in patent US9993570B2, “Radiolabeled tracers for poly (ADP-ribose) polymerase-1 (PARP-1), methods and uses therefor” (Washington University, priority 2014, dated 2018).

Experiments:
[1] = Metabolic stability of [18F]WC-4-138 in mice (percent parent by HPLC); format: in vivo; conditions: C57BL/6J mice
Procedure: In these experiments, the metabolic stability of [^18]-WC-4-138 was assessed after injecting 400 μCi into the tail veins of adult male C57BL/6J mice (Jackson Laboratory). Mice were sacrificed by cervical dislocation 5 or 30 minutes post-injection. […] The plasma was separated from the red blood cells by centrifugation at 14000 rpm. Plasma (100 μl) was mixed with acetonitrile at a 1:1.5 ratio and centrifuged at 14000 rpm. Radioactivity associated with the red blood cell pellet, whole plasma, and acetonitrile-soluble and insoluble fractions was measured. The liver of each animal was also collected at the indicated times and frozen on dry ice. Livers were homogenized in 2 ml acetonitrile and 1 ml of the homogenized liver was centrifuged at 14000 rpm. Radioactivity associated with the supernatant and pellet was measured. Acetonitrile-soluble plasma or liver supernatant (100 μl) was mixed at a 1:1 ratio with water and separated by reverse phase HPLC. The parent compound was also separated by HPLC as a reference. The radioactivity associated with each HPLC fraction was measured. The percent parent compound of each sample was calculated as the portion radioactivity associated with the HPLC fractions expected to contain the parent compound.

[2] = Organ biodistribution of [18F]WC-4-138 in athymic nude mice; format: in vivo
Procedure: This example illustrates biodistribution of Compound 12 ([^18F]WC-4-138) in mice. Eight week old, female, athymic nude mice (Harlan) were injected via tail vein with [^18F]WC4-138. Mice were sacrificed by cervical dislocation 5 or 30 minutes after IV tracer injection of 30 μCi, 1 or 2 hours after injection of 45 μCi, or 4 hours after injection of 60 μCi of [^18F]WC-4-138. The acetonitrile-soluble fractions of plasma or liver and the control parent compound were separated via reverse-phase high performance liquid chromatography (HPLC) and the radioactivity of each fraction was quantified. The percent parent compound of each sample was calculated as the portion of radioactivity associated with the HPLC fractions that contained the parent compound. Data are presented as mean±SD, n=3.
Four mice were sacrificed at each timepoint, with the exception of the 2 hour timepoint (n=3). Blood, heart, lung, muscle, liver, spleen, fat, adrenal glands, kidney, uterus, ovaries, bone, bone marrow, pancreas, stomach, small intestine, and large intestine were collected from each animal. All organs were blotted to remove excess blood, weighed, and counted in a Beckmann 6000 gamma counter. The percent injected dose per gram (% ID/g) of tissue was determined for each organ.

O=C1NCCn2c(-c3ccc(OCC[18F])cc3)nc3cccc1c32 [[^18F]12]
percent parent compound relative to the reference compound, blood ([1]; 5 minutes post-injection): 50%
percent parent compound relative to the reference compound, liver ([1]; 5 minutes post-injection): about 80%
percent parent compound relative to the reference compound, blood ([1]; 30 minutes post-injection): about 10%
percent parent compound relative to the reference compound, liver ([1]; 30 minutes post-injection): about 70%
% ID/g, Adrenals ([2]; 5 min after IV injection): 11.80 +/− 0.46 % ID/g
% ID/g, Blood ([2]; 5 min after IV injection): 1.60 +/− 0.21 % ID/g
% ID/g, Bone ([2]; 5 min after IV injection): 3.40 +/− 0.74 % ID/g
% ID/g, Brain ([2]; 5 min after IV injection): 0.55 +/− 0.16 % ID/g
% ID/g, Fat ([2]; 5 min after IV injection): 1.16 +/− 0.49 % ID/g
% ID/g, Heart ([2]; 5 min after IV injection): 6.57 +/− 0.45 % ID/g
% ID/g, Kidney ([2]; 5 min after IV injection): 35.63 +/− 3.33 % ID/g
% ID/g, Liver ([2]; 5 min after IV injection): 12.50 +/− 1.08 % ID/g
% ID/g, Lower Large Intestine ([2]; 5 min after IV injection): 4.17 +/− 0.42 % ID/g
% ID/g, Lung ([2]; 5 min after IV injection): 11.89 +/− 0.89 % ID/g
% ID/g, Marrow ([2]; 5 min after IV injection): 0.06 +/− 0.02 % ID/g
% ID/g, Muscle ([2]; 5 min after IV injection): 2.05 +/− 0.48 % ID/g
% ID/g, Ovaries ([2]; 5 min after IV injection): 4.71 +/− 1.21 % ID/g
% ID/g, Pancress ([2]; 5 min after IV injection): 9.67 +/− 1.98 % ID/g
% ID/g, Small Intestine ([2]; 5 min after IV injection): 12.64 +/− 1.45 % ID/g
% ID/g, Spleen ([2]; 5 min after IV injection): 12.47 +/− 6.69 % ID/g
% ID/g, Stomach ([2]; 5 min after IV injection): 3.17 +/− 0.66 % ID/g
% ID/g, Thyroid ([2]; 5 min after IV injection): 4.18 +/− 1.18 % ID/g
% ID/g, Upper Large Intestine ([2]; 5 min after IV injection): 7.84 +/− 1.02 % ID/g
% ID/g, Uterus ([2]; 5 min after IV injection): 3.44 +/− 2.01 % ID/g
% ID/g, Adrenals ([2]; 30 min after IV injection): 5.18 +/− 0.94 % ID/g
% ID/g, Blood ([2]; 30 min after IV injection): 2.07 +/− 0.16 % ID/g
% ID/g, Bone ([2]; 30 min after IV injection): 4.49 +/− 0.34 % ID/g
% ID/g, Brain ([2]; 30 min after IV injection): 1.03 +/− 0.11 % ID/g
% ID/g, Fat ([2]; 30 min after IV injection): 1.22 +/− 0.25 % ID/g
% ID/g, Heart ([2]; 30 min after IV injection): 3.44 +/− 0.30 % ID/g
% ID/g, Kidney ([2]; 30 min after IV injection): 21.14 +/− 2.21 % ID/g
% ID/g, Liver ([2]; 30 min after IV injection): 8.24 +/− 0.62 % ID/g
% ID/g, Lower Large Intestine ([2]; 30 min after IV injection): 7.43 +/− 0.59 % ID/g
% ID/g, Lung ([2]; 30 min after IV injection): 5.33 +/− 0.48 % ID/g
% ID/g, Marrow ([2]; 30 min after IV injection): 0.11 +/− 0.02 % ID/g
% ID/g, Muscle ([2]; 30 min after IV injection): 2.39 +/− 0.15 % ID/g
% ID/g, Ovaries ([2]; 30 min after IV injection): 5.31 +/− 0.82 % ID/g
% ID/g, Pancress ([2]; 30 min after IV injection): 10.27 +/− 1.28 % ID/g
% ID/g, Small Intestine ([2]; 30 min after IV injection): 13.00 +/− 0.75 % ID/g
% ID/g, Spleen ([2]; 30 min after IV injection): 26.85 +/− 3.52 % ID/g
% ID/g, Stomach ([2]; 30 min after IV injection): 3.77 +/− 0.73 % ID/g
% ID/g, Thyroid ([2]; 30 min after IV injection): 4.03 +/− 0.28 % ID/g
% ID/g, Upper Large Intestine ([2]; 30 min after IV injection): 14.07 +/− 1.72 % ID/g
% ID/g, Uterus ([2]; 30 min after IV injection): 4.53 +/− 1.45 % ID/g
% ID/g, Adrenals ([2]; 60 min after IV injection): 3.51 +/− 1.08 % ID/g
% ID/g, Blood ([2]; 60 min after IV injection): 2.30 +/− 0.28 % ID/g
% ID/g, Bone ([2]; 60 min after IV injection): 5.21 +/− 0.40 % ID/g
% ID/g, Brain ([2]; 60 min after IV injection): 1.24 +/− 0.13 % ID/g
% ID/g, Fat ([2]; 60 min after IV injection): 1.16 +/− 0.45 % ID/g
% ID/g, Heart ([2]; 60 min after IV injection): 2.88 +/− 0.23 % ID/g
% ID/g, Kidney ([2]; 60 min after IV injection): 14.02 +/− 1.84 % ID/g
% ID/g, Liver ([2]; 60 min after IV injection): 6.50 +/− 0.52 % ID/g
% ID/g, Lower Large Intestine ([2]; 60 min after IV injection): 10.53 +/− 1.45 % ID/g
% ID/g, Lung ([2]; 60 min after IV injection): 3.99 +/− 0.29 % ID/g
% ID/g, Marrow ([2]; 60 min after IV injection): 0.13 +/− 0.04 % ID/g
% ID/g, Muscle ([2]; 60 min after IV injection): 2.21 +/− 0.31 % ID/g
% ID/g, Ovaries ([2]; 60 min after IV injection): 4.75 +/− 0.36 % ID/g
% ID/g, Pancress ([2]; 60 min after IV injection): 9.18 +/− 1.37 % ID/g
% ID/g, Small Intestine ([2]; 60 min after IV injection): 8.85 +/− 1.49 % ID/g
% ID/g, Spleen ([2]; 60 min after IV injection): 25.75 +/− 1.95 % ID/g
% ID/g, Stomach ([2]; 60 min after IV injection): 3.62 +/− 0.37 % ID/g
% ID/g, Thyroid ([2]; 60 min after IV injection): 3.32 +/− 0.19 % ID/g
% ID/g, Upper Large Intestine ([2]; 60 min after IV injection): 15.62 +/− 2.31 % ID/g
% ID/g, Uterus ([2]; 60 min after IV injection): 5.51 +/− 0.79 % ID/g
% ID/g, Adrenals ([2]; 120 min after IV injection): 2.69 +/− 0.44 % ID/g
% ID/g, Blood ([2]; 120 min after IV injection): 2.54 +/− 0.13 % ID/g
% ID/g, Bone ([2]; 120 min after IV injection): 6.56 +/− 0.80 % ID/g
% ID/g, Brain ([2]; 120 min after IV injection): 1.58 +/− 0.19 % ID/g
% ID/g, Fat ([2]; 120 min after IV injection): 1.07 +/− 0.11 % ID/g
% ID/g, Heart ([2]; 120 min after IV injection): 2.68 +/− 0.09 % ID/g
% ID/g, Kidney ([2]; 120 min after IV injection): 8.77 +/− 0.72 % ID/g
% ID/g, Liver ([2]; 120 min after IV injection): 4.58 +/− 0.29 % ID/g
% ID/g, Lower Large Intestine ([2]; 120 min after IV injection): 13.35 +/− 0.87 % ID/g
% ID/g, Lung ([2]; 120 min after IV injection): 3.17 +/− 0.28 % ID/g
% ID/g, Marrow ([2]; 120 min after IV injection): 0.07 +/− 0.01 % ID/g
% ID/g, Muscle ([2]; 120 min after IV injection): 2.07 +/− 0.11 % ID/g
% ID/g, Ovaries ([2]; 120 min after IV injection): 4.25 +/− 0.52 % ID/g
% ID/g, Pancress ([2]; 120 min after IV injection): 5.37 +/− 0.64 % ID/g
% ID/g, Small Intestine ([2]; 120 min after IV injection): 6.62 +/− 0.75 % ID/g
% ID/g, Spleen ([2]; 120 min after IV injection): 17.19 +/− 1.08 % ID/g
% ID/g, Stomach ([2]; 120 min after IV injection): 2.56 +/− 0.27 % ID/g
% ID/g, Thyroid ([2]; 120 min after IV injection): 3.46 +/− 0.10 % ID/g
% ID/g, Upper Large Intestine ([2]; 120 min after IV injection): 10.28 +/− 0.65 % ID/g
% ID/g, Uterus ([2]; 120 min after IV injection): 4.13 +/− 0.20 % ID/g
% ID/g, Adrenals ([2]; 240 min after IV injection): 1.74 +/− 0.34 % ID/g
% ID/g, Blood ([2]; 240 min after IV injection): 1.61 +/− 0.05 % ID/g
% ID/g, Bone ([2]; 240 min after IV injection): 9.29 +/− 1.17 % ID/g
% ID/g, Brain ([2]; 240 min after IV injection): 1.17 +/− 0.05 % ID/g
% ID/g, Fat ([2]; 240 min after IV injection): 0.62 +/− 0.44 % ID/g
% ID/g, Heart ([2]; 240 min after IV injection): 1.67 +/− 0.06 % ID/g
% ID/g, Kidney ([2]; 240 min after IV injection): 3.67 +/− 0.54 % ID/g
% ID/g, Liver ([2]; 240 min after IV injection): 2.43 +/− 0.25 % ID/g
% ID/g, Lower Large Intestine ([2]; 240 min after IV injection): 7.17 +/− 0.50 % ID/g
% ID/g, Lung ([2]; 240 min after IV injection): 2.03 +/− 0.43 % ID/g
% ID/g, Marrow ([2]; 240 min after IV injection): 0.04 +/− 0.01 % ID/g
% ID/g, Muscle ([2]; 240 min after IV injection): 1.35 +/− 0.09 % ID/g
% ID/g, Ovaries ([2]; 240 min after IV injection): 2.00 +/− 0.41 % ID/g
% ID/g, Pancress ([2]; 240 min after IV injection): 2.75 +/− 0.44 % ID/g
% ID/g, Small Intestine ([2]; 240 min after IV injection): 3.04 +/− 0.25 % ID/g
% ID/g, Spleen ([2]; 240 min after IV injection): 9.80 +/− 1.01 % ID/g
% ID/g, Stomach ([2]; 240 min after IV injection): 1.20 +/− 0.08 % ID/g
% ID/g, Thyroid ([2]; 240 min after IV injection): 3.23 +/− 0.49 % ID/g
% ID/g, Upper Large Intestine ([2]; 240 min after IV injection): 4.33 +/− 0.57 % ID/g
% ID/g, Uterus ([2]; 240 min after IV injection): 2.05 +/− 0.31 % ID/g
